Assay results as given in US20240049707A1, “PESTICIDE COMPOSITIONS OF LICOCHALCONE C” (METABOLIC INSIGHTS LTD., priority 2020, published 2024).

Assays:
Sclerotinia sclerotiorum = experiment: Microplate based screening of bioactivity against Sclerotinia sclerotiorum; format: cell-based; details: 10 μl of 250 ppm solution + 40 μl inoculum, activity grade x repeats x days of activity/252 x 100
Protocol: Diluted in DMSO purified Licochalcone C was added to microplate wells and mixed with 50 μl of hyphae suspension and growth of the fungus starting from blended hyphae was monitored by visual inspection. Dilute the inoculum stock 1:10 in PDBC—2 ml in 20 ml, or calculate the dilution needed, to prepare final concentration of 2000 CFU/ml. The final number of hyphae should be 100 CFU in each well. Microplate Preparation for Activity Experiment: • 1) Take a stock solution of purified 1% Licochalcone C in DMSO from the −20 freezer and thaw it on the bench. • 2) Take 1 μl of stock solution of 1% Licochalcone C and dilute up to 250 ppm with 39 μl of water. • 3) Take 10 μl of the diluted (250 ppm) Licochalcone C solution into the wells of the microplate using a multi-pipette. • 4) Add 40 μl of vigorously mixed spore suspension inoculum to the wells of the microplate using a multi-pipette. • 5) Seal the plate with transparent sealer • 6) Shake the plate for 10 min at 2000 RPM to mix the Licochalcone C with the hyphae suspension • 7) Centrifugate the plate at 1000RCF for is and stop to collect the liquid at the bottom of the plate. • 8) Collect the plates on the bench until all microplates are ready for incubation. • 9) Insert microplates into a plastic box and put the box in the incubator at 21° C. […]

Pythium aphanidermatum = experiment: In-vivo validation under greenhouse conditions in cucumber seedlings infected with Pythium aphanidermatum; details: preventative treatment 24 h before inoculation; 2 types of formulations; 100 to 400 ppm; evaluated 7 days after inoculation
Source text: FIGS. 1-8 show the effect of Licochalcone C (LIC) on cucumber seedlings survival in 8 independent experiments determined as percentage of disease severity 7 days following inoculation with Pythium aphanidermatum. FIGS. 9-11 show effect of Licochalcone C (LIC) on cucumber seedlings survival in 3 independent experiments determined as of disease severity 7 days following inoculation with Rhizoctonia solani. * means that p-value <0.05, ** means that p-value is <0.01, # means that p-value <0.1, n.s. means non-significant difference vs. non-treated plants. For formulation description used for Licochalcone C see Example 7.
To evaluate the effect of a Licochalcone C in infected plants compared to control plants (infected but not treated) the data was analysed by Student's t-test and the p-value is calculated. The minimum number of repeats in each experiment was 3. Results were considered significant if p<0.05. The data presented as mean with standard error mean from biological replicates. * means that p-value <0.05, ** means that p-value is <0.01, # means that p-value <0.1. […]
General description: Pythium aphanidermatum disease severity development was evaluated following preventative treatment by Licochalcone C (LIC) […]

SMILES: COc1c(/C=C/C(=O)c2ccc(O)cc2)ccc(O)c1CC=C(C)C [Licochalcone C, (E)-3-[4-hydroxy-2-methoxy-3-(3-methylbut-2-enyl)phenyl]-1-(4-hydroxyphenyl)prop-2-en-1-one]
- Relative Activity value (%) (Sclerotinia sclerotiorum): 13%
- efficacy in preventing Pythium disease in cucumber seedling (Pythium aphanidermatum): up to 100%
